Reference: patent US20260345798A1, “COMPOUNDS AND METHODS OF USE THEREOF” (Virginia Commonwealth University, priority 2023, published 2026)
Residues, ends and D or L forms follow the SMILES beside them.

Experiments:
[1] = PK study in mice, IV and IP; assay type: in vivo
Experimental: These studies were conducted at the Sanford-Burnham Pharmacology Core facility for measurements of IVMT-Rx-3 in plasma after dosing.
The chemical formula of IVMT-Rx-3 (PDZ1/2i) is provided as FIG. 1A, and synthesis schema is described above in Chemical Example 1. Docked structure of IVMT-Rx-3 in complex with MDA-9/Syntenin is provided as FIG. 1B. After confirming the synthesis product using different analytical methods, e.g., HPLC, LC/MS and NMR (FIGS. 8A-8F), the dissociation constant of IVMT-Rx-3-recombinant MDA-9/Syntenin complex was measured to be 63+/−11 μM using microscale thermophoresis (MST) analysis (FIG. 1C). In order to assess if this hybrid chimeric molecule (small molecule linked to a peptide) was suitable for cellular and in vivo assays, initial PK studies in mice were performed with IVMT-Rx-3 administered both IV (5.0 mg/kg) and IP (50.0 mg/kg), and compound concentration in serum was measured at the indicated times (FIG. 1D).

MDA-9/Syntenin: Src = target: T1, MDA-9/Syntenin: Src (Homo sapiens, UniProt O00560); assay: Co-immunoprecipitation MDA-9/Syntenin: Src; assay type: cell-based; conditions: C8161.9 and A-375 cells; co-IP after 12 hours treatment, fibronectin-coated plates
T1 construct: co-immunoprecipitation with anti-MDA-9
Experimental: FIG. 4A is an immunoblot of C8161.9 and A-375 cells treated for 12 hours with either DMSO vehicle or IVMT-Rx-3 at different doses (as indicated) and re-plated onto fibronectin-coated plates. After 30 minutes, cell lysates were immunoprecipitated and immunoblotted with the indicated antibodies.
Co-immunoprecipitation studies were performed as described previously using immunoprecipitation kits with Dynabeads® Protein G (Life Technologies) (7,8). Briefly, 30 min. after plating cells on fibronectin-coated plates, protein lysates were prepared. 200 μg of total cellular protein was incubated with anti-IgG or anti-MDA-9 overnight to facilitate binding. After subsequent washing and elution from beads, Western blotting was performed with specific antibodies.

[2] = test system: primary normal human epidermal melanocytes (NHEM); assay: MTT and colony formation assays in normal human melanocytes; assay type: cell-based
Experimental: FIG. 2A is a histogram showing the results of an MTT assay of normal human melanocytes treated with varying concentrations of IVMT-Rx-3.
FIG. 2B is a histogram showing the results of a colony formation assay of normal human melanocytes treated with varying concentrations of IVMT-Rx-3. Two-hundred cells were plated on 60-mm dishes, treated with IVMT-Rx-3 at different doses. Every third day, culture media was replaced with fresh IVMT-Rx-3-containing media. After two weeks, colonies were stained, counted and graphs plotted.
The effect of IVMT-Rx-3 on primary normal human epidermal melanocyte cell growth and survival was determined after short term (24 hr., growth assays) (FIG. 2A) and long-term exposure (3-week, clonal assays) (FIG. 2B).

MDA-9/Syntenin = target: T2, MDA-9/Syntenin (Homo sapiens, UniProt O00560); assay: NMR titration / ITC binding and HSQC mapping
T2 sequence (O00560 1-298): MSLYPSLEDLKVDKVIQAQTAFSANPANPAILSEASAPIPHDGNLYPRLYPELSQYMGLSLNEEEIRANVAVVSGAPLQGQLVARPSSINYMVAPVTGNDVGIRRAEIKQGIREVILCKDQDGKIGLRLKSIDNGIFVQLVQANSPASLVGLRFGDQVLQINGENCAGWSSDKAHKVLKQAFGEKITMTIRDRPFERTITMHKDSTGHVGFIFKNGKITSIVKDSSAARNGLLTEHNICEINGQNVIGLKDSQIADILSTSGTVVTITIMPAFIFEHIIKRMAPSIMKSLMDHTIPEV

B16 melanoma cells = assay: Boyden chamber invasion assay, B16 cells; assay type: cell-based; conditions: B16 mouse melanoma cells
Experimental: FIG. 13A is a series of photomicrographs of B16 melanoma cells treated with IVMT-Rx-3 at varying concentrations, as well as a histogram showing quantification of the average percentage (of control) of invaded cells. Invasion was assayed using a Boyden chamber. *: Statistical significance (p<0.05).
Invasive phenotype was measured using a Boyden Chamber Assay as described previously (6,8,18). Briefly, 25,000 cells were plated on the upper chamber of the trans well in FBS free media and allowed to invade the Matrigel layer towards the bottom chamber supplemented with complete media. Twenty-four hr. after plating, the invaded cells were fixed and counted under a bright field microscope.

MMP-2 and MMP-9 = assay: Gelatin zymography of conditioned media; assay type: cell-based, human; conditions: A-375 and C8161.9 cells, 10, 25, 50 μM, 24 hrs
Experimental: FIG. 5B is images of zymography assays of MMP-2 and MMP-9 activity in A-375, C8161.9 cells treated with IVMT-Rx-3 at varying doses, and histograms showing the calculated intensity from the zymography assays. *: Statistical significance (p<0.05).
Tumor cells were treated with different doses of IVMT-Rx-3 (10, 25, and 50 μM) for 24 hrs. The cells were then cultured in serum-free medium overnight. Conditioned media (serum free media) collected on the next day was quantified and equal amounts of protein were run in a 7.5% SDS-polyacrylamide gel electrophoresis containing 1.5 mg/mL gelatin. The gels were washed vigorously with shaking 3×in 2.5% Triton X-100 solution to remove the SDS. The gel was then placed in the developing buffer [50 mM/L Tris-HCl (pH 7.5), 0.05% NaN3, 5 mM/L CaCl2), and 1 μM/L ZnCl2] 37 °C overnight. Lastly, the gels were stained with Amido black in 10% acetic acid followed by de-staining for 1 hr. MMP activities as observed through gelatinolysis were measured as clear zones of white strips against a blue background (21).

NF-κB = NF-κB (p65) transcription factor assay; assay type: cell-based, human; conditions: A-375 and C8161.9 melanoma cells
Experimental: FIG. 4C is a histogram showing the NF-κB transcriptional activity of A-375 melanoma cells treated with the indicated doses of IVMT-Rx-3. *: Statistical significance (p<0.05).
FIG. 4D is a histogram showing the NF-κB transcriptional activity of C8161.9 melanoma cells treated with the indicated doses of IVMT-Rx-3. *: Statistical significance (p<0.05).
NF-κB transcription factor assay kits were obtained from Cayman Chemical (Ann Arbor, MI, USA) (Cat #10007889). Nuclear extracts were prepared from cells using the Nuclear and Cytoplasmic Extraction kit (Thermo Fisher Scientific, USA). The samples were then added to pretreated wells for 1 hr. after which they were washed with a wash buffer provided in the kit. The NF-κB antibody was then added with a 1 hr. incubation and after washing the antibody, HRP-conjugated secondary antibody was added for 1 hr. Lastly, a developing solution followed by a stop solution was added. The wells were analyzed with a microplate reader for absorbance at 450 nm.

Cc1cc(NC(=O)c2nc3[nH]c4c(c(=O)n3n2)CCC4)c(C)cc1NC(=O)CCOCCC(=O)N[C@H](C(=O)N[C@@H](CC(N)=O)C(=O)N[C@@H](CCC(=O)O)C(=O)N[C@@H](Cc1ccc(O)cc1)C(=O)N[C@@H](Cc1ccc(O)cc1)C(=O)N[C@H](C(=O)O)C(C)C)[C@@H](C)O [IVMT-Rx-3] (HELM PEPTIDE1{[Cc1cc(NC(=O)c2nc3[nH]c4c(c(=O)n3n2)CCC4)c(C)cc1NC(=O)CCOCCC(=O)[*:2]].T.N.E.Y.Y.V}$$$$V2.0)
persistence in vivo ([1]; IV 5.0 mg/kg and IP 50.0 mg/kg): long-lived in vivo
bioavailability ([1]; mouse, serum, IP 50.0 mg/kg (IV 5.0 mg/kg)): 10%
disruption of MDA-9/Syntenin: Src interactions (MDA-9/Syntenin: Src): disrupted MDA-9/Syntenin: Src interactions
effect on cell proliferation on repeated treatment ([2]; 50 μM, repeated treatment, FIG. 2A and 2B): did not show any effect on cell proliferation
toxicity in primary melanocytes ([2]; 50 μM, 24 hr growth assay and 3-week clonal assay): No significant toxicity
toxicity in early passage normal human melanocytes ([2]; summary statement): without provoking toxicity
effect on cell proliferation in NHEM (MTT assay) ([2]; varying concentrations, FIG. 2A): lack of effect
Kd (MDA-9/Syntenin; ITC, fitted to a single binding event, NMR titration provides similar values, read-out: overall dissociation constant of the complex, Kd): < 1000 nM
induction of chemical shifts (NMR mapping) (MDA-9/Syntenin; NMR mapping studies): induces chemical shifts in both domains
perturbation of Met201 (PDZ2) and Met188 (PDZ1) (MDA-9/Syntenin; [13C,1H]-HSQC, 20 μM 13C-Met-labeled MDA-9/Syntenin, 40 μM compound): both clearly perturbed
invasion of B16 cells (B16 melanoma cells): inhibition of invasion
MMP activity (zymography) (MMP-2 and MMP-9): lower activity in treated cells
transcriptional activity of NF-κB (NF-κB): suppressed the transcriptional activity of NF-κB in a dose-dependent manner
